Laboratory results: US20220144938A1, “IDENTIFICATION AND TARGETING OF TUMOR PROMOTING CARCINOMA ASSOCIATED FIBROBLASTS FOR DIAGNOSIS AND TREATMENT OF CANCER AND OTHER DISEASES” (Board of Regents, The University of Texas System, priority 2018, published 2022)
“Also recorded” adds a separate entry of the source.

Columns and labels:
[1] = tested on: PDAC tumors lacking p53 (KPPF); experiment: Survival of PDAC genetically engineered mice under treatment (Kaplan-Meier, log rank); type: in vivo
Excerpt: Mice. FSF-Kras^G12D/+ (Schonhuber et al., 2014), Pdx1-Flp (Schonhuber et al., 2014), Trp53^frt/+ (Lee et al., 2012), LSL-Kras^G12D/+ (Hingorani et al., 2005), Pdx1-Cre (Hingorani et al., 2005), αSMA-Cre (LeBleu et al., 2013), αSMA-RFP (LeBleu et al., 2013), Rosa26-loxP-Stop-loxP-YFP (Ozdemir et al., 2014), Tgfbr2^loxP/loxP (Ijichi et al., 2006), and IL-6^loxP/loxP (Quintana et al., 2013) mouse strains were previously documented. The Rosa26-CAG-loxP-frt-Stop-frt-FireflyLuc-EGFP-loxP-RenillaLuc-tdTomato (referred to as R26^Dual), FSF-Kras^G12D/+, Pdx1-Flp, and Trp53^frt/+ strains were kindly provided by D. Saur, and the R26R-Brainbow2.1/Confetti (referred to as R26^Confetti) strain was purchased from Jackson Laboratory (Stock 013731). The IL-6^−/− strain was generated by crossing the IL-6^loxP/loxP strain with CMV-Cre strain (Jackson Laboratory; Stock 006054). The FAP-TK transgenic strain was newly generated: a 5 kb sequence flanking the FAP promoter and partial Exon 1 (Ex1) was cloned into pORF-HSV1-TK vector (Invivogen) using NotI and AgeI. The sequence-confirmed FAP-TK construct was released from the vector using NotI and SwaI before purification and injection into fertilized eggs. The transgenic mice were generated on the C57Bl/6 genetic background. These mice were bred onto PDAC GEM or implanted orthotopically with 689KPC cancer cells, as previously described (Kamerkar et al., 2017). Mice were maintained on a mixed genetic background and both male and female mice were evaluated. Mice were given gemcitabine (G-4177, LC Laboratories) intraperitoneally (i.p.) twice per week at 40 mg/kg of body weight. Gemcitabine treatment was initiated at 35 days of age. Ganciclovir (GCV; sud-gcv, Invivogen) was administered i.p. daily at 50 mg/kg of body weight ([…]). GCV was administered to PKT mice at 28 to 30 days of age, and to PKP mice at 50-51 days of age. Some of the tissues analyzed from the PKT;αSMA-TK GEM were from mice that were previously published (Ozdemir et al., 2014). […]

PDAC tumors (KPPF GEM) [2] = experiment: Histopathological scoring and tumor burden of pancreas tumors; type: in vivo; settings: gemcitabine in KPPF;IL-6smaKO vs KPPF mice
Excerpt: Mice. FSF-Kras^G12D/+ (Schonhuber et al., 2014), Pdx1-Flp (Schonhuber et al., 2014), Trp53^frt/+ (Lee et al., 2012), LSL-Kras^G12D/+ (Hingorani et al., 2005), Pdx1-Cre (Hingorani et al., 2005), αSMA-Cre (LeBleu et al., 2013), αSMA-RFP (LeBleu et al., 2013), Rosa26-loxP-Stop-loxP-YFP (Ozdemir et al., 2014), Tgfbr2^loxP/loxP (Ijichi et al., 2006), and IL-6^loxP/loxP (Quintana et al., 2013) mouse strains were previously documented. The Rosa26-CAG-loxP-frt-Stop-frt-FireflyLuc-EGFP-loxP-RenillaLuc-tdTomato (referred to as R26^Dual), FSF-Kras^G12D/+, Pdx1-Flp, and Trp53^frt/+ strains were kindly provided by D. Saur, and the R26R-Brainbow2.1/Confetti (referred to as R26^Confetti) strain was purchased from Jackson Laboratory (Stock 013731). The IL-6^−/− strain was generated by crossing the IL-6^loxP/loxP strain with CMV-Cre strain (Jackson Laboratory; Stock 006054). […] Mice were maintained on a mixed genetic background and both male and female mice were evaluated. […] Some of the tissues analyzed from the PKT;αSMA-TK GEM were from mice that were previously published (Ozdemir et al., 2014). […]
Histopathological Scoring. […] Tumor scores for orthotopic tumors were attributed on a scale from 1 (minor involvement) to 4 (extensive involvement), which evaluated on H&E sections of the entire pancreas the relative tumor involvement. […]

[3] = tested on: IL-6 and Acta2 (αSMA) transcripts; experiment: qPCR and immunolabeling of IL-6 and αSMA in tumors; type: in vivo; settings: tumors of KPPF mice following gemcitabine treatment
Procedure: Formalin-fixed, paraffin-embedded (FFPE) sections were processed for immunohistochemical (IHC) staining as previously described (Zheng et al., 2015), after Citrate based antigen retrieval (pH=6). For FAP staining in mouse FFPE sections citrate-based antigen retrieval was performed at pH 7.4. Staining for αSMA was performed with M.O.M. kit (Vector Laboratories) following the manufacturer's instructions. For all other staining, sections were incubated with biotinylated goat anti-rabbit and streptavidin HRP (Biocare Medical), each for 10 min. For all staining, counterstaining with hematoxylin was performed and DAB positivity was examined in ten visual fields at 200× magnification. […] The images were quantified for positive area using NIH ImageJ analysis software (αSMA, CD31, CK19, cleaved caspase-3, Ki67, MTS, phospho-Akt, phospho-ERK1/2, phospho-Stat3). For αSMA and FAP double immunofluorescence in human FFPE sections, secondary anti-sheep Alexa Fluor 488 and anti-mouse Alexa Fluor 534 antibodies were incubated for 30 min at RT. […]
Gene expression analyses and global gene expression profiling. […] The expression level of detected genes was normalized to that of Gapdh housekeeping gene. […] Primer sequences for detected genes are listed below. […]

[4] = tested on: phospho-Stat3, phospho-ERK1/2, phospho-Akt; experiment: Immunohistochemistry for phospho-Stat3, phospho-ERK1/2 and phospho-Akt in tumors; type: in vivo, mice
Procedure: (§1) Formalin-fixed, paraffin-embedded (FFPE) sections were processed for immunohistochemical (IHC) staining as previously described (Zheng et al., 2015), after Citrate based antigen retrieval (pH=6). For FAP staining in mouse FFPE sections citrate-based antigen retrieval was performed at pH 7.4. Staining for αSMA was performed with M.O.M. kit (Vector Laboratories) following the manufacturer's instructions. For all other staining, sections were incubated with biotinylated goat anti-rabbit and streptavidin HRP (Biocare Medical), each for 10 min. For all staining, counterstaining with hematoxylin was performed and DAB positivity was examined in ten visual fields at 200× magnification. […] The images were quantified for positive area using NIH ImageJ analysis software (αSMA, CD31, CK19, cleaved caspase-3, Ki67, MTS, phospho-Akt, phospho-ERK1/2, phospho-Stat3). For αSMA and FAP double immunofluorescence in human FFPE sections, secondary anti-sheep Alexa Fluor 488 and anti-mouse Alexa Fluor 534 antibodies were incubated for 30 min at RT. For αSMA and FAP IHC on FAP-TK and control tumor sections, immunoreactive score (IRS) were obtained from the sum of distribution and intensity scores for each section, established on a scale of 1 to 4 (Meyerholz & Beck, 2018).

PDAC tumors (KPPF GEM) [5] = experiment: Immunohistochemistry/staining of pancreas sections for CD31, Ki67, cleaved caspase 3 and MTS; type: in vivo, mice
Procedure: as §1
Histopathological Scoring. Mouse tissues were fixed in 10% neutral buffered formalin, embedded in paraffin, and sectioned at 5 μm thickness. Sections were processed for haematoxylin and eosin (H&E) staining and/or Masson's trichrome staining (MTS) using Gomori's Trichome Stain Kit (38016SS2, Leica Biosystems). Histopathological assessments were conducted in a blinded fashion by scoring H&E-stained sections for relative percentages of the listed histopathological phenotypes. Tumor scores for orthotopic tumors were attributed on a scale from 1 (minor involvement) to 4 (extensive involvement), which evaluated on H&E sections of the entire pancreas the relative tumor involvement. Microscopic metastases were examined in H&E-stained tissue sections of the liver and lung. Positivity (one or more lesions in one tissue) was confirmed by CK19 staining. Images were obtained with a Leica DM 1000 LED microscope and an MC120 HD Microscope Camera with Las V4.4 Software (Leica).

intra-tumoral T cells = experiment: Flow cytometry characterization of tumor immune infiltration; type: in vivo; settings: gemcitabine treatment, mice with IL-6
Procedure: For the characterization of immune infiltration, tumors (from 2.5-month-old mice, treated with saline or gemcitabine for 2 weeks) were weighed, minced with gentleMACS Dissociator, and digested in 2 mL solution containing 1 mg/mL Liberase TL (Roche) and 0.2 mg/mL DNase I in DMEM media at 37° C. for 30 min. Spleens were weighed and filtered through a 100 μm mesh. Peripheral blood was collected with EDTA-tube, incubated with ACK lysis buffer for 5 min, and proceeded to mesh filtration. The tissue lysates were filtered through a 100 μm mesh before immunostaining. The subsequent single-cells suspension was stained with Fixable Viability Dye eFluor 780 (eBioscience) and antibodies specified in Table 2. The percentage positive cells were analyzed by FlowJo 10.1 and gated on CD45 positivity. Unstained, viability stain only, and single-stained beads (eBioscience) were used as compensation controls. Singlets were gated using forward scatter (FSC) height (FSC-H) and FSC area (FSC-A) event characteristics.

[6] = gemcitabine with loss of IL-6 from αSMA+ CAFs (KPPF;IL-6smaKO)
[7] = tumors of KPPF mice treated with gemcitabine
[8] = gemcitabine in mice with αSMA+ CAFs-specific loss of IL-6, vs controls

For `Nc1ccn([C@@H]2O[C@H](CO)[C@@H](O)C2(F)F)c(=O)n1` [gemcitabine], the overall survival ([1]; KPPF mice, gemcitabine 40 mg/kg i.p. twice per week, vs untreated KPPF mice) was “no benefit”, the overall survival ([1]; KPPF;IL-6smaKO mice (αSMA+ CAFs-specific loss of IL-6) treated with gemcitabine, vs KPPF mice treated with gemcitabine) was “increase in overall survival; also recorded: overall increase in survival” and the overall survival ([1]; KPPF;IL-6−/− mice (absent IL-6) treated with gemcitabine, vs KPPF mice treated with gemcitabine) was “increased overall survival; also recorded: overall increase in survival”. For the same compound, the tumor burden (PDAC tumors (KPPF GEM) [2]) was “reduced tumor burden”, the histopathology (PDAC tumors (KPPF GEM) [2]; moribund endpoint) was “improved histopathology” and the “IL-6 transcript levels and positive cells” value [3] was “elevated”. For the same compound, the “αSMA transcript levels and αSMA+ CAFs” value [3] was “elevated”, the “gemcitabine-induced change in phosphorylated Akt” value [4, 6] was “significantly attenuated” and the “gemcitabine-induced change in phosphorylated ERK1/2” value [4, 6] was “significantly attenuated”. The “gemcitabine-induced change in phosphorylated Stat3” value [4, 6] was “significantly attenuated”, the “levels of phosphorylated Akt in cancer cells” value [4, 7] was “elevated levels” and the “levels of phosphorylated ERK1/2 in cancer cells” value [4, 7] was “elevated levels”. For the same compound, the “levels of phosphorylated Stat3 in cancer cells” value [4, 7] was “elevated levels”, the “cleaved caspase-3, indicative of apoptosis” value (PDAC tumors (KPPF GEM) [5]; gemcitabine concurrent with αSMA+ CAFs-specific loss of IL-6) was “further increased” and the cancer cell proliferation (PDAC tumors (KPPF GEM) [5]; [8]) was “did not significantly impact”. The tumor collagen deposition (PDAC tumors (KPPF GEM) [5]; [8]) was “did not significantly impact”, the tumor vasculature (PDAC tumors (KPPF GEM) [5]; [8]) was “did not significantly impact” and the “cleaved caspase-3, indicative of apoptosis” value (PDAC tumors (KPPF GEM) [5]; mice treated with gemcitabine) was “elevated”. For the same compound, the “intra-tumoral T cell frequencies” value (intra-tumoral T cells) was “minimally impacted”.
